According to patent US9693556B2, “Herbicidal pyridazinone derivatives” (SYNGENTA LIMITED, priority 2011, dated 2017):

How the values were obtained:
Format in all cases: in vivo
[1] = tested on: Amaranthus retoflexus (AMARE); test: Pre-emergence herbicidal glasshouse test on Amaranthus retoflexus; conditions: pre-emergence; 1000 g/h; evaluated after 13 days
Summary of the method: (§1)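 Plants sprayed 1 day (pre-emergence) or 8 days (post-emergence) after sowing with compound at 1000 g/h in acetone/water 50:50 with 0.5% Tween 20; glasshouse 24/16° C, 14 h light, 65% humidity. Damage assessed after 13 days, scored 1–5 (5 = 80-100%, 1 = 0-19%).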

[2] = tested on: Setaria faberi (SETFA); test: Post-emergence herbicidal glasshouse test on Setaria faberi; conditions: post-emergence; 1000 g/h; evaluated after 13 days
Summary of the method: as §1

[3] = tested on: Echinochloa crus-galli (ECHCG); test: Pre-emergence herbicidal glasshouse test on Echinochloa crus-galli; conditions: pre-emergence; 1000 g/h; evaluated after 13 days
Summary of the method: as §1

[4] = tested on: Ipomoea hederacea (IPOHE); test: Pre-emergence herbicidal glasshouse test on Ipomoea hederacea; conditions: pre-emergence; 1000 g/h; evaluated after 13 days
Summary of the method: as §1

[5] = tested on: Alopecurus myosuroides (ALOMY); test: Post-emergence herbicidal glasshouse test on Alopecurus myosuroides; conditions: post-emergence; 1000 g/h; evaluated after 13 days
Summary of the method: as §1

[6] = tested on: Ipomoea hederacea (IPOHE); test: Post-emergence herbicidal glasshouse test on Ipomoea hederacea; conditions: post-emergence; 1000 g/h; evaluated after 13 days
Summary of the method: as §1

[7] = tested on: Amaranthus retoflexus (AMARE); test: Post-emergence herbicidal glasshouse test on Amaranthus retoflexus; conditions: post-emergence; 1000 g/h; evaluated after 13 days
Summary of the method: as §1

[8] = tested on: Solanum nigrum (SOLNI); test: Post-emergence herbicidal glasshouse test on Solanum nigrum; conditions: post-emergence; 1000 g/h; evaluated after 13 days
Summary of the method: as §1

[9] = tested on: Echinochloa crus-galli (ECHCG); test: Post-emergence herbicidal glasshouse test on Echinochloa crus-galli; conditions: post-emergence; 1000 g/h; evaluated after 13 days
Summary of the method: as §1

[10] = tested on: Setaria faberi (SETFA); test: Pre-emergence herbicidal glasshouse test on Setaria faberi; conditions: pre-emergence; 1000 g/h; evaluated after 13 days
Summary of the method: as §1

[11] = tested on: Alopecurus myosuroides (ALOMY); test: Pre-emergence herbicidal glasshouse test on Alopecurus myosuroides; conditions: pre-emergence; 1000 g/h; evaluated after 13 days
Summary of the method: as §1

[12] = tested on: Solanum nigrum (SOLNI); test: Pre-emergence herbicidal glasshouse test on Solanum nigrum; conditions: pre-emergence; 1000 g/h; evaluated after 13 days
Summary of the method: as §1

SMILES	PRE Application AMARE herbicidal damage (five point scale) [1]	POST Application SETFA herbicidal damage (five point scale) [2]	PRE Application ECHCG herbicidal damage (five point scale) [3]	PRE Application IPOHE herbicidal damage (five point scale) [4]	POST Application ALOMY herbicidal damage (five point scale) [5]	POST Application IPOHE herbicidal damage (five point scale) [6]	POST Application AMARE herbicidal damage (five point scale) [7]	POST Application SOLNI herbicidal damage (five point scale) [8]	POST Application ECHCG herbicidal damage (five point scale) [9]	PRE Application SETFA herbicidal damage (five point scale) [10]	PRE Application ALOMY herbicidal damage (five point scale) [11]	PRE Application SOLNI herbicidal damage (five point scale) [12]
CN(Cc1nc(C(F)(F)F)ccc1-c1cnn(C)c(=O)c1O)S(C)(=O)=O [Compound 1.040]	5 (5=80-100% damage)	5 (5=80-100% damage)	5 (5=80-100% damage)	4 (4=60-79% damage)	4 (4=60-79% damage)	5 (5=80-100% damage)	5 (5=80-100% damage)	5 (5=80-100% damage)	5 (5=80-100% damage)	5 (5=80-100% damage)	5 (5=80-100% damage)	5 (5=80-100% damage)
CC[S+]([O-])c1ccccc1-c1cnn(C)c(=O)c1O (stereo not drawn) [Compound 1.041]	4 (4=60-79% damage)	5 (5=80-100% damage)	4 (4=60-79% damage)	1 (1=0-19% damage)	4 (4=60-79% damage)	5 (5=80-100% damage)	5 (5=80-100% damage)	5 (5=80-100% damage)	5 (5=80-100% damage)	2 (2=20-39% damage)	3 (3=40-59% damage)	2 (2=20-39% damage)
CCS(=O)(=O)c1ccccc1-c1cnn(C)c(=O)c1O [Compound 1.042]	5 (5=80-100% damage)	5 (5=80-100% damage)	5 (5=80-100% damage)	1 (1=0-19% damage)	5 (5=80-100% damage)	4 (4=60-79% damage)	5 (5=80-100% damage)	5 (5=80-100% damage)	5 (5=80-100% damage)	5 (5=80-100% damage)	5 (5=80-100% damage)	5 (5=80-100% damage)
CC(C)[S+]([O-])c1ccccc1-c1cnn(C)c(=O)c1O (stereo not drawn) [Compound 1.043]	1 (1=0-19% damage)	4 (4=60-79% damage)	1 (1=0-19% damage)	1 (1=0-19% damage)	2 (2=20-39% damage)	4 (4=60-79% damage)	5 (5=80-100% damage)	5 (5=80-100% damage)	4 (4=60-79% damage)	1 (1=0-19% damage)	1 (1=0-19% damage)	1 (1=0-19% damage)
CC(C)S(=O)(=O)c1ccccc1-c1cnn(C)c(=O)c1O [Compound 1.044]	5 (5=80-100% damage)	5 (5=80-100% damage)	5 (5=80-100% damage)	1 (1=0-19% damage)	5 (5=80-100% damage)	5 (5=80-100% damage)	5 (5=80-100% damage)	5 (5=80-100% damage)	5 (5=80-100% damage)	5 (5=80-100% damage)	5 (5=80-100% damage)	5 (5=80-100% damage)
Cc1c(Cl)ccc(-c2cnn(C)c(=O)c2O)c1F [Compound 1.045]	1 (1=0-19% damage)	1 (1=0-19% damage)	1 (1=0-19% damage)	1 (1=0-19% damage)	1 (1=0-19% damage)	1 (1=0-19% damage)	2 (2=20-39% damage)	4 (4=60-79% damage)	1 (1=0-19% damage)	1 (1=0-19% damage)	1 (1=0-19% damage)	1 (1=0-19% damage)
Cn1ncc(-c2ccccc2S(C)(=O)=O)c(O)c1=O [Compound 1.046]	5 (5=80-100% damage)	5 (5=80-100% damage)	5 (5=80-100% damage)	1 (1=0-19% damage)	5 (5=80-100% damage)	5 (5=80-100% damage)	5 (5=80-100% damage)	5 (5=80-100% damage)	5 (5=80-100% damage)	3 (3=40-59% damage)	5 (5=80-100% damage)	5 (5=80-100% damage)
CCCC[S+]([O-])c1ccccc1-c1cnn(C)c(=O)c1O (stereo not drawn) [Compound 1.047]	1 (1=0-19% damage)	1 (1=0-19% damage)	1 (1=0-19% damage)	1 (1=0-19% damage)	1 (1=0-19% damage)	3 (3=40-59% damage)	3 (3=40-59% damage)	4 (4=60-79% damage)	1 (1=0-19% damage)	1 (1=0-19% damage)	1 (1=0-19% damage)	1 (1=0-19% damage)
Cn1ncc(-c2ccc(S(C)(=O)=O)c(COCC(F)(F)F)c2Cl)c(O)c1=O [Compound 1.049]	5 (5=80-100% damage)	5 (5=80-100% damage)	5 (5=80-100% damage)	1 (1=0-19% damage)	5 (5=80-100% damage)	5 (5=80-100% damage)	5 (5=80-100% damage)	5 (5=80-100% damage)	5 (5=80-100% damage)	3 (3=40-59% damage)	2 (2=20-39% damage)	5 (5=80-100% damage)
Cn1ncc(-c2ccc(S(C)(=O)=O)c(Cl)c2Cl)c(O)c1=O [Compound 1.050]	5 (5=80-100% damage)	4 (4=60-79% damage)	5 (5=80-100% damage)	1 (1=0-19% damage)	2 (2=20-39% damage)	5 (5=80-100% damage)	5 (5=80-100% damage)	5 (5=80-100% damage)	5 (5=80-100% damage)	2 (2=20-39% damage)	1 (1=0-19% damage)	3 (3=40-59% damage)
